According to DBAASP:
Converted amounts (≈) assume the structure as drawn.

Legend:
Test in all cases: ≥ marks a high value that may be exact or a test limit, other limits are often not marked, values filed in µg/mL are converted to µM
Listeria grayi DSM 20601 = test system: Listeria grayi DSM 20601
Trichomonas vaginalis T1 = test system: Trichomonas vaginalis T1
[1] = test system: Trichomonas vaginalis ATCC 30001
[2] = test system: Vibrio vulnificus BCRC 12905
[3] = test system: Listeria monocytogenes BCRC 14845
[4] = test system: Trichomonas vaginalis ATCC 50143
Vibrio alginolyticus = test system: Vibrio alginolyticus
Streptococcus agalactiae = test system: Streptococcus agalactiae
Candida albicans = test system: Candida albicans
[5] = test system: Mycobacterium tuberculosis
[6] = test system: Staphylococcus aureus ATCC 25923
Candida glabrata = test system: Candida glabrata
[7] = test system: Mycobacterium tuberculosis H37Rv
[8] = test system: Escherichia coli ATCC 25922
[9] = test system: Pseudomonas aeruginosa ATCC 9027
[10] = test system: Staphylococcus aureus ATCC 33592
[11] = test system: Acinetobacter baumannii ATCC BAA-1794
[12] = test system: Pseudomonas aeruginosa PAO1
[13] = test system: Escherichia coli ATCC 51659
Pseudomonas aeruginosa = test system: Pseudomonas aeruginosa
[14] = test system: Candida albicans F7-39/IDE99
Staphylococcus aureus 1 = test system: Staphylococcus aureus 1
Staphylococcus aureus = test system: Staphylococcus aureus
[15] = test system: Pseudomonas aeruginosa ATCC 27853
Bacillus subtilis 168 = test system: Bacillus subtilis 168
[16] = test system: Staphylococcus epidermidis
[17] = test system: Micrococcus luteus CCM 144
Escherichia coli B = test system: Escherichia coli B
[18] = test system: Staphylococcus aureus ATCC 43300
[19] = test system: Staphylococcus aureus 68 HER 1049
[20] = test system: Escherichia coli K12 MG1655
[21] = test system: Corynebacterium glutamicum ATCC 13032
Botrytis cinerea 101 = test system: Botrytis cinerea 101
[22] = test system: Staphylococcus aureus ATCC 9144
[23] = test system: Candida albicans CCARM 14021
Candida albicans SC5314 = test system: Candida albicans SC5314
[24] = test system: Candida albicans CCARM 14020
[25] = test system: Candida albicans CCARM 14022
[26] = test system: Lactiplantibacillus plantarum 965
[27] = test system: Latilactobacillus sakei NCDO 2714

CC[C@H](C)[C@H](NC(=O)[C@H](CS)NC(=O)[C@@H](NC(=O)[C@H](CCCN=C(N)N)NC(=O)[C@H](CCCCN)NC(=O)[C@H](CC(C)C)NC(=O)[C@H](Cc1ccccc1)NC(=O)[C@H](CC(N)=O)NC(=O)CNC(=O)[C@@H](N)CS)[C@@H](C)O)C(=O)N[C@@H](CS)C(=O)N[C@H](C(=O)N[C@@H](CCCCN)C(=O)N[C@@H](CCCCN)C(=O)O)C(C)C [CGNFLKRTCICVKK]
MIC (Listeria grayi DSM 20601): ≥ 60 µM

CSCC[C@H](NC(=O)[C@H](CCCN=C(N)N)NC(=O)CNC(=O)[C@H](CCCCN)NC(=O)[C@H](Cc1ccc(O)cc1)NC(=O)[C@H](Cc1ccc(O)cc1)NC(=O)[C@@H](NC(=O)[C@H](CCC(N)=O)NC(=O)[C@H](Cc1ccccc1)NC(=O)[C@H](CCCN=C(N)N)NC(=O)[C@H](CCCCN)NC(=O)[C@H](CC(C)C)NC(=O)[C@H](Cc1ccc(O)cc1)NC(=O)[C@@H]1CCCN1C(=O)[C@H](CCCCN)NC(=O)[C@@H](NC(=O)[C@@H](NC(=O)[C@H](Cc1ccccc1)NC(=O)[C@H](CCCCN)NC(=O)[C@H](CS)NC(=O)[C@H](CCC(=O)O)NC(C)=O)[C@@H](C)O)C(C)C)C(C)C)C(=O)N[C@@H](Cc1c[nH]c2ccccc12)C(=O)N[C@@H](CS)C(=O)N1CCC[C@H]1C(N)=O [ECKFTVKPYLKRFQVYYKGRMWCP]
MIC (Trichomonas vaginalis T1): ≥ 65.1 µM
MIC [1]: ≥ 32.6 µM
MIC [2]: ≥ 32.6 µM
MIC [3]: 8.14 µM (≈ 25.3 µg/mL)
MIC [4]: 8.14 µM (≈ 25.3 µg/mL)
MIC (Vibrio alginolyticus): ≥ 32.6 µM

CC[C@H](C)[C@H](NC(=O)[C@H](CCCCN)NC(=O)[C@H](CCCCN)NC(=O)[C@@H](NC(=O)[C@H](C)NC(=O)[C@H](CO)NC(=O)[C@@H](NC(=O)[C@H](C)NC(=O)[C@H](CO)NC(=O)[C@@H]1CCCN1C(=O)[C@@H](NC(=O)[C@H](CC(C)C)NC(=O)[C@H](CO)NC(=O)[C@H](CC(C)C)NC(=O)[C@H](CC(C)C)NC(=O)[C@H](Cc1ccccc1)NC(=O)[C@@H](N)Cc1ccccc1)[C@@H](C)CC)[C@@H](C)CC)[C@@H](C)CC)C(N)=O [FFLLSLIPSAISAIKKI]
MIC (Streptococcus agalactiae): 5 µM (≈ 9.3 µg/mL)
MIC (Candida albicans): 6.25 µM (≈ 11.6 µg/mL)
MIC [5]: 8.6 µM (≈ 16 µg/mL)
MIC [6]: 5 µM (≈ 9.3 µg/mL)
MIC (Candida glabrata): ≥ 50 µM
MIC [7]: 5.4 µM (≈ 10 µg/mL)
MIC [8]: 24 µM (≈ 44.6 µg/mL)
MIC [9]: 5 µM (≈ 9.3 µg/mL)

CC(C)C[C@H](NC(=O)[C@H](CCCCN)NC(=O)[C@H](CCC(=O)O)NC(=O)[C@H](CCCCN)NC(=O)[C@@H](NC(=O)[C@H](CCCCN)NC(=O)[C@H](CCCCN)NC(=O)[C@H](Cc1ccccc1)NC(=O)[C@H](Cc1cnc[nH]1)NC(=O)[C@H](CCC(=O)O)NC(=O)[C@H](CO)NC(=O)[C@H](Cc1ccccc1)NC(=O)[C@H](Cc1c[nH]c2ccccc12)NC(=O)[C@H](CC(N)=O)NC(=O)[C@H](CCCN=C(N)N)NC(=O)[C@@H](NC(=O)[C@H](CCCCN)NC(=O)[C@@H](NC(=O)[C@H](CO)NC(=O)[C@@H](N)Cc1ccccc1)[C@@H](C)O)[C@@H](C)O)C(C)C)C(=O)N[C@@H](CCCCN)C(=O)N[C@@H](CC(=O)O)C(=O)N[C@H](C(=O)N[C@@H](Cc1ccccc1)C(=O)N[C@@H](C)C(=O)O)[C@@H](C)O [FSTKTRNWFSEHFKKVKEKLKDTFA]
MIC [10]: ≥ 80.6 µM
MIC [11]: ≥ 80.6 µM
MIC [12]: > 80.6 µM
MIC [13]: ≥ 80.6 µM

CC[C@H](C)[C@H](NC(=O)CN)C(=O)N[C@@H](CCSC)C(=O)N[C@H](C(=O)N[C@@H](CO)C(=O)N[C@@H](CC(C)C)C(=O)N[C@@H](CCSC)C(=O)N[C@@H](CCCCN)C(=O)N[C@@H](CCCCN)C(=O)N[C@@H](CC(C)C)C(=O)N[C@@H](C)C(=O)N[C@@H](C)C(=O)N[C@@H](Cc1cnc[nH]1)C(=O)N[C@H](C(=O)N[C@@H](C)C(=O)N[C@@H](CCCCN)C(N)=O)[C@@H](C)CC)[C@@H](C)CC [GIMISLMKKLAAHIAK]
MIC (Pseudomonas aeruginosa): > 100 µM
MIC [14]: 12 µM (≈ 20.7 µg/mL)
MIC (Staphylococcus aureus 1): ≥ 35 µM
MIC (Staphylococcus aureus): 65 µM (≈ 112 µg/mL)
MIC [15]: 47 µM (≈ 81 µg/mL)
MIC (Bacillus subtilis 168): 7 µM (≈ 12.1 µg/mL)
MIC [16]: 8.8 µM (≈ 15.2 µg/mL)
MIC [17]: 3 µM (≈ 5.17 µg/mL)
MIC (Escherichia coli B): 12 µM (≈ 20.7 µg/mL)
MIC [18]: 43 µM (≈ 74.1 µg/mL)

CC[C@H](C)[C@H](NC(=O)CNC(=O)[C@H](CCCCN)NC(=O)[C@H](Cc1ccccc1)NC(=O)[C@H](CC(C)C)NC(=O)[C@H](CCCCN)NC(=O)[C@H](Cc1c[nH]c2ccccc12)NC(=O)[C@@H](N)CCCCN)C(=O)N[C@@H](CCCN=C(N)N)C(=O)N[C@@H](C)C(=O)N[C@H](C(=O)N[C@@H](CC(C)C)C(=O)N[C@@H](CCCCN)C(=O)N[C@H](C(=O)N[C@@H](CC(C)C)C(=O)O)C(C)C)C(C)C [KWKLFKGIRAVLKVL]
MIC [19]: 4.45 µM (≈ 8 µg/mL)
MIC [20]: 2.22 µM (≈ 4 µg/mL)

CC[C@H](C)[C@H](NC(=O)[C@H](CCCCN)NC(=O)[C@@H](NC(=O)[C@H](CCCN=C(N)N)NC(=O)[C@H](C)NC(=O)[C@H](CCC(=O)O)NC(=O)[C@H](CCC(=O)O)NC(=O)[C@@H]1CCCN1C(=O)[C@@H](N)CO)C(C)C)C(=O)N[C@@H](CC(C)C)C(=O)N[C@H](C(=O)N[C@@H](C)C(=O)N[C@H](C(=O)N1CCC[C@H]1C(=O)N[C@@H](CCC(=O)O)C(=O)N[C@@H](CCSC)C(=O)N[C@@H](CCCN=C(N)N)C(=O)N[C@@H](CCC(=O)O)C(=O)N[C@@H](CCC(=O)O)C(=O)N[C@@H](CC(=O)O)C(=O)N[C@@H](CC(C)C)C(=O)N[C@@H](CO)C(=O)N[C@@H](CCC(=O)O)C(=O)N[C@@H](CCC(=O)O)C(=O)O)[C@@H](C)CC)[C@@H](C)O [SPEEARVKILTAIPEMREEDLSEE]
MIC [21]: ≥ 100 µM
MIC (Botrytis cinerea 101): ≥ 100 µM
MIC [8]: > 100 µM
MIC [22]: ≥ 100 µM

CC(C)C[C@H](NC(=O)[C@@H](N)Cc1c[nH]c2ccccc12)C(=O)N[C@@H](CC(N)=O)C(=O)N[C@@H](C)C(=O)N[C@@H](CCCCN)C(=O)N[C@@H](CCCN=C(N)N)C(=O)N[C@@H](Cc1cnc[nH]1)C(=O)N[C@@H](Cc1cnc[nH]1)C(=O)NCC(=O)N[C@@H](Cc1ccc(O)cc1)C(=O)N[C@@H](CCCCN)C(=O)N[C@@H](CCCN=C(N)N)C(=O)N[C@@H](CCCCN)C(=O)N[C@@H](Cc1ccccc1)C(=O)N[C@@H](Cc1cnc[nH]1)C(N)=O [WLNAKRHHGYKRKFH]
MIC [23]: 5.72 µM (≈ 11.3 µg/mL)
MIC (Candida albicans SC5314): 2.86 µM (≈ 5.65 µg/mL)
MIC [24]: 2.86 µM (≈ 5.65 µg/mL)
MIC [25]: 16.2 µM (≈ 32 µg/mL)

CSCC[C@H](NC(=O)[C@H](CCC(N)=O)NC(=O)[C@H](CC(C)C)NC(=O)[C@H](CO)NC(=O)[C@@H](N)Cc1ccc(O)cc1)C(=O)O [YSLQM]
MIC [26]: 10 µM (≈ 6.41 µg/mL)
MIC [27]: 1 µM (≈ 0.641 µg/mL)
